Test results reported in PubChem BioAssay AID1259407 (Chemical Carcinogenesis Research Information System (CCRIS), 2018).
Active and inactive are the calls of the source. How the calls were made is not given here.

Test system: CCRIS mutagenicity, Ames/micronucleus/aberration tests
Experiment: CCRIS mutagenicity studies
[1] = Test System: AMES SALMONELLA TYPHIMURIUM, Strain/Indicator: TA98, Metabolic Activation: NONE, Method: PREINCUBATION
[2] = Test System: AMES SALMONELLA TYPHIMURIUM, Strain/Indicator: TA100, Metabolic Activation: NONE, Method: PREINCUBATION
[3] = Test System: AMES SALMONELLA TYPHIMURIUM, Strain/Indicator: TA100, Metabolic Activation: NONE, Method: STANDARD PLATE

## CCCCC(CC)COP(=O)(Oc1ccccc1)Oc1ccccc1 (stereo not given)
Test System: AMES SALMONELLA TYPHIMURIUM, Strain/Indicator: TA98, Metabolic Activation: HAMSTER, LIVER, S-9, AROCLOR 1254 (10%), Method: PREINCUBATION
  mutagenic call: inactive; negative
[1]
  mutagenic call: inactive; negative
Test System: AMES SALMONELLA TYPHIMURIUM, Strain/Indicator: TA98, Metabolic Activation: RAT, LIVER, S-9, AROCLOR 1254 (10%), Method: PREINCUBATION
  mutagenic call: inactive; negative
Test System: AMES SALMONELLA TYPHIMURIUM, Strain/Indicator: TA100, Metabolic Activation: HAMSTER, LIVER, S-9, AROCLOR 1254 (10%), Method: PREINCUBATION
  mutagenic call: inactive; negative
[2]
  mutagenic call: inactive; negative
Test System: AMES SALMONELLA TYPHIMURIUM, Strain/Indicator: TA100, Metabolic Activation: RAT, LIVER, S-9, AROCLOR 1254 (10%), Method: PREINCUBATION
  mutagenic call: inactive; negative
Test System: AMES SALMONELLA TYPHIMURIUM, Strain/Indicator: TA1535, Metabolic Activation: HAMSTER, LIVER, S-9, AROCLOR 1254 (10%), Method: PREINCUBATION
  mutagenic call: inactive; negative
Test System: AMES SALMONELLA TYPHIMURIUM, Strain/Indicator: TA1535, Metabolic Activation: NONE, Method: PREINCUBATION
  mutagenic call: inactive; negative
Test System: AMES SALMONELLA TYPHIMURIUM, Strain/Indicator: TA1535, Metabolic Activation: RAT, LIVER, S-9, AROCLOR 1254 (10%), Method: PREINCUBATION
  mutagenic call: inactive; negative
Test System: AMES SALMONELLA TYPHIMURIUM, Strain/Indicator: TA1537, Metabolic Activation: HAMSTER, LIVER, S-9, AROCLOR 1254 (10%), Method: PREINCUBATION
  mutagenic call: inactive; negative
Test System: AMES SALMONELLA TYPHIMURIUM, Strain/Indicator: TA1537, Metabolic Activation: NONE, Method: PREINCUBATION
  mutagenic call: inactive; negative
Test System: AMES SALMONELLA TYPHIMURIUM, Strain/Indicator: TA1537, Metabolic Activation: RAT, LIVER, S-9, AROCLOR 1254 (10%), Method: PREINCUBATION
  mutagenic call: inactive; negative

## CC(C)CCCC(C)CCCC(C)CCCCC(C)CCCC(C)CCCC(C)C (stereo not given)
Test System: Ames Salmonella typhimurium, Strain/Indicator: TA98, Metabolic Activation: None, Method: Preincubation
  mutagenic call: inactive; negative
Test System: Ames Salmonella typhimurium, Strain/Indicator: TA98, Metabolic Activation: Rat, Liver, S9, Phenobarbital and 5,6-benzoflavone, Method: Preincubation
  mutagenic call: inactive; negative
Test System: Ames Salmonella typhimurium, Strain/Indicator: TA100, Metabolic Activation: None, Method: Preincubation
  mutagenic call: inactive; negative
Test System: Ames Salmonella typhimurium, Strain/Indicator: TA100, Metabolic Activation: Rat, Liver, S9, Phenobarbital and 5,6-benzoflavone, Method: Preincubation
  mutagenic call: inactive; negative
Test System: Ames Salmonella typhimurium, Strain/Indicator: TA1535, Metabolic Activation: None, Method: Preincubation
  mutagenic call: inactive; negative
Test System: Ames Salmonella typhimurium, Strain/Indicator: TA1535, Metabolic Activation: Rat, Liver, S9, Phenobarbital and 5,6-benzoflavone, Method: Preincubation
  mutagenic call: inactive; negative
Test System: Ames Salmonella typhimurium, Strain/Indicator: TA1537, Metabolic Activation: None, Method: Preincubation
  mutagenic call: inactive; negative
Test System: Ames Salmonella typhimurium, Strain/Indicator: TA1537, Metabolic Activation: Rat, Liver, S9, Phenobarbital and 5,6-benzoflavone, Method: Preincubation
  mutagenic call: inactive; negative
Test System: E. coli, Strain/Indicator: WP2uvrA/pKM101, Metabolic Activation: None, Method: Preincubation
  mutagenic call: inactive; negative
Test System: E. coli, Strain/Indicator: WP2uvrA/pKM101, Metabolic Activation: Rat, Liver, S9, Phenobarbital and 5,6-benzoflavone, Method: Preincubation
  mutagenic call: inactive; negative

## Cc1ccccc1N=Nc1ccc(N=Nc2c(O)ccc3ccccc23)c(C)c1
Test System: AMES SALMONELLA TYPHIMURIUM, Strain/Indicator: TA98, Metabolic Activation: HAMSTER, LIVER, S-9, Method: PREINCUBATION (PRIVAL METHOD)
  mutagenic call: active; positive
Test System: AMES SALMONELLA TYPHIMURIUM, Strain/Indicator: TA98, Metabolic Activation: NONE, Method: STANDARD PLATE
  mutagenic call: inactive; negative
[3]
  mutagenic call: inactive; negative

## COC(=O)Nc1cccc(OC(=O)Nc2cccc(C)c2)c1
Test System: AMES SALMONELLA TYPHIMURIUM, Strain/Indicator: TA97, Metabolic Activation: HAMSTER, LIVER, S-9, AROCLOR 1254 (30%), Method: PREINCUBATION
  mutagenic call: inactive; negative
Test System: AMES SALMONELLA TYPHIMURIUM, Strain/Indicator: TA97, Metabolic Activation: NONE, Method: PREINCUBATION
  mutagenic call: inactive; negative
Test System: AMES SALMONELLA TYPHIMURIUM, Strain/Indicator: TA97, Metabolic Activation: RAT, LIVER, S-9, AROCLOR 1254 (30%), Method: PREINCUBATION
  mutagenic call: inactive; negative
Test System: AMES SALMONELLA TYPHIMURIUM, Strain/Indicator: TA98, Metabolic Activation: HAMSTER, LIVER, S-9, AROCLOR 1254 (10 OR 30%), Method: PREINCUBATION
  mutagenic call: inactive; negative
Test System: AMES SALMONELLA TYPHIMURIUM, Strain/Indicator: TA98, Metabolic Activation: HAMSTER, LIVER, S-9, AROCLOR 1254 (30%), Method: PREINCUBATION
  mutagenic call: active; positive
[1]
  mutagenic call: inactive; negative
Test System: AMES SALMONELLA TYPHIMURIUM, Strain/Indicator: TA98, Metabolic Activation: RAT, LIVER, S-9, AROCLOR 1254 (30%), Method: PREINCUBATION
  mutagenic call: inactive; negative
Test System: AMES SALMONELLA TYPHIMURIUM, Strain/Indicator: TA100, Metabolic Activation: HAMSTER, LIVER, S-9, AROCLOR 1254 (30%), Method: PREINCUBATION
  mutagenic call: inactive; negative
[2]
  mutagenic call: inactive; negative
Test System: AMES SALMONELLA TYPHIMURIUM, Strain/Indicator: TA100, Metabolic Activation: RAT, LIVER, S-9, AROCLOR 1254 (30%), Method: PREINCUBATION
  mutagenic call: inactive; negative
Test System: AMES SALMONELLA TYPHIMURIUM, Strain/Indicator: TA1538, Metabolic Activation: HAMSTER, LIVER, S-9, AROCLOR 1254 (10%), Method: PREINCUBATION
  mutagenic call: inactive; negative
Test System: AMES SALMONELLA TYPHIMURIUM, Strain/Indicator: TA1538, Metabolic Activation: HAMSTER, LIVER, S-9, AROCLOR 1254 (30%), Method: PREINCUBATION
  mutagenic call: active; positive
Test System: AMES SALMONELLA TYPHIMURIUM, Strain/Indicator: TA1538, Metabolic Activation: NONE, Method: PREINCUBATION
  mutagenic call: inactive; negative
Test System: AMES SALMONELLA TYPHIMURIUM, Strain/Indicator: TA1538, Metabolic Activation: RAT, LIVER, S-9, AROCLOR 1254 (30%), Method: PREINCUBATION
  mutagenic call: inactive; negative

## Cc1cc2ccccc2c2cc3ccccc3cc12
Test System: AMES SALMONELLA TYPHIMURIUM, Strain/Indicator: TA100, Metabolic Activation: RAT, INTACT HEPATOCYTES, AROCLOR 1254, Method: PREINCUBATION
  mutagenic call: active; positive
Test System: AMES SALMONELLA TYPHIMURIUM, Strain/Indicator: TA100, Metabolic Activation: RAT, LIVER, S-9, AROCLOR 1254, Method: PREINCUBATION
  mutagenic call: active; positive
Test System: AMES SALMONELLA TYPHIMURIUM, Strain/Indicator: TA100, Metabolic Activation: RAT, NADPH-FORTIFIED HOMOGENIZED HEPATOCYTES, AROCLOR 1254, Method: PREINCUBATION
  mutagenic call: active; positive
Test System: AMES SALMONELLA TYPHIMURIUM, Strain/Indicator: TA100, Metabolic Activation: RAT, SONICATED HEPATOCYTES, AROCLOR 1254, Method: PREINCUBATION
  mutagenic call: active; positive

## O=CNc1ccc(Oc2ccc(Cl)cc2)cc1
[3]
  mutagenic call: inactive; negative
Test System: AMES SALMONELLA TYPHIMURIUM, Strain/Indicator: TA100, Metabolic Activation: RAT, LIVER, S-9, KANECLOR 500, Method: STANDARD PLATE
  mutagenic call: active; positive
